Values quoted from earlier work in publication PMC2709231 (European Journal of Nuclear Medicine and Molecular Imaging, 2009).

Details: human, in vivo

^90Y-DTPA-(D)Glu^1-(Glu)5-Ala-Tyr-Gly-Trp-Met-Asp-Phe-NH2 [^90Y-DTPA-DGlu^1-minigastrin]
Side effects of radionuclide therapy: serious side effects, including renal insufficiency and bone marrow toxicity
